Measured values taken from patent US20220386606A1, “SPECIFICALLY SUBSTITUTED 3-PHENYL-5-SPIROCYCLOPENTYL-3-PYRROLIN-2-ONES AND THEIR USE AS HERBICIDES” (Bayer Aktiengesellschaft, priority 2019, published 2022).

Experiments:
SETVI [1] = assay: Pre-emergence herbicidal action against SETVI; type: in vivo, Setaria viridis; conditions: 320 g/ha, scored visually after 3 weeks vs untreated controls
Method in brief: (§1)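 Pre-emergence soil-surface application: WP/EC in water, 600 to 800 L/ha, + 0.2% wetting agent, onto soil-covered seeds in sandy loam. Greenhouse, 3 wk. Visual % activity vs untreated (100% = dead).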

ECHCG [2] = assay: Post-emergence herbicidal action against ECHCG; type: in vivo, Echinochloa crus-galli; conditions: 80 g/ha, visual assessment about 3 weeks after treatment vs untreated controls
Method in brief: (§2)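 Visual scoring about 3 weeks after treatment gave % herbicidal action relative to untreated plants (0% = control-like, 100% = plants dead). Compounds, as WP or EC with 0.2% wetting agent, were sprayed onto green parts at 600–800 l/ha. Plants had reached the one-leaf stage, 2–3 weeks after sowing in sandy loam under greenhouse conditions.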

DIGSA [3] = assay: Pre-emergence herbicidal action against DIGSA; type: in vivo, Digitaria sanguinalis; conditions: 320 g/ha, scored visually after 3 weeks vs untreated controls
Method in brief: as §1

VIOTR [4] = assay: Post-emergence herbicidal action against VIOTR; type: in vivo, Viola tricolor; conditions: 80 g/ha, visual assessment about 3 weeks after treatment vs untreated controls
Procedure: (§3) Seeds of monocotyledonous and dicotyledonous weed and crop plants are laid out in sandy loam soil in wood-fiber pots, covered with soil and cultivated in a greenhouse under good growth conditions. 2 to 3 weeks after sowing, the test plants are treated at the one-leaf stage. The compounds of the invention, formulated in the form of wettable powders (WP) or as emulsion concentrates (EC), are then sprayed onto the green parts of the plants as aqueous suspension or emulsion at a water application rate equating to 600 to 800 l/ha with addition of 0.2% wetting agent. After the test plants have been left to stand in the greenhouse under optimal growth conditions for about 3 weeks, the action of the preparations is assessed visually in comparison to untreated controls (herbicidal action in percent (%): 100% activity=the plants have died, 0% activity=like control plants).

ALOMY [5] = assay: Pre-emergence herbicidal action against ALOMY; type: in vivo, Alopecurus myosuroides; conditions: 320 g/ha, scored visually after 3 weeks vs untreated controls
Method in brief: as §1

ABUTH [6] = assay: Post-emergence herbicidal action against ABUTH; type: in vivo, Abutylon threophrasti; conditions: 80 g/ha, visual assessment about 3 weeks after treatment vs untreated controls
Method in brief: as §2

SETVI [7] = assay: Post-emergence herbicidal action against SETVI; type: in vivo, Setaria viridis; conditions: 80 g/ha, visual assessment about 3 weeks after treatment vs untreated controls
Method in brief: as §2

AMARE [8] = assay: Pre-emergence herbicidal action against AMARE; type: in vivo, Amaranthus retroflexus; conditions: 320 g/ha
Method in brief: as §1

LOLRI [9] = assay: Pre-emergence herbicidal action against LOLRI (Table 8, titled post-emergence at 320 g/ha); type: in vivo, Lolium rigidum; conditions: table stands in the pre-emergence section
Method in brief: as §1

DIGSA [10] = assay: Post-emergence herbicidal action against DIGSA; type: in vivo, Digitaria sanguinalis; conditions: 80 g/ha, visual assessment about 3 weeks after treatment vs untreated controls
Method in brief: as §2

AVEFA [11] = assay: Pre-emergence herbicidal action against AVEFA; type: in vivo, Avena fatua; conditions: 320 g/ha, scored visually after 3 weeks vs untreated controls
Method in brief: as §1

POLCO = assay: Pre-emergence herbicidal action against POLCO; type: in vivo, Polygonum convolvulus; conditions: 320 g/ha
Method in brief: as §1

LOLRI [12] = assay: Post-emergence herbicidal action against LOLRI; type: in vivo, Lolium rigidum; conditions: 80 g/ha, visual assessment about 3 weeks after treatment vs untreated controls
Method in brief: as §2

AVEFA [13] = assay: Post-emergence herbicidal action against AVEFA; type: in vivo, Avena fatua; conditions: 80 g/ha, visual assessment after about 3 weeks
Method in brief: as §2

MATIN = assay: Pre-emergence herbicidal action against MATIN; type: in vivo; conditions: 320 g/ha
Method in brief: as §1

ECHCG [14] = assay: Pre-emergence herbicidal action against ECHCG; type: in vivo, Echinochloa crus-galli; conditions: 320 g/ha, scored visually after 3 weeks vs untreated controls
Method in brief: as §1

VIOTR [15] = assay: Pre-emergence herbicidal action against VIOTR; type: in vivo, Viola tricolor; conditions: 320 g/ha
Method in brief: as §1

ALOMY [16] = assay: Post-emergence herbicidal action against ALOMY; type: in vivo, Alopecurus myosuroides; conditions: 80 g/ha, visual assessment after about 3 weeks
Method in brief: as §2

VERPE = assay: Pre-emergence herbicidal action against VERPE; type: in vivo, Veronica persica; conditions: 320 g/ha
Method in brief: as §1

AMARE [17] = assay: Post-emergence herbicidal action against AMARE; type: in vivo, Amaranthus retroflexus; conditions: 80 g/ha, visual assessment about 3 weeks after treatment vs untreated controls
Procedure: as §3

ABUTH [18] = assay: Pre-emergence herbicidal action against ABUTH; type: in vivo, Abutylon threophrasti; conditions: 320 g/ha
Method in brief: as §1

## CC#Cc1cc(C)c(C2=C(O)C3(CCC(COC)C3)NC2=O)c(Br)c1 (stereo not drawn) [Example I-19]
SETVI [1]
  Pre-emergence action against SETVI in %: 100%
ECHCG [2]
  Post-emergence action against ECHCG in %: 100%
DIGSA [3]
  Pre-emergence action against DIGSA in %: 100%
VIOTR [4]
  Post-emergence action against VIOTR in %: 80%
ALOMY [5]
  Pre-emergence action against ALOMY in %: 100%
ABUTH [6]
  Post-emergence action against ABUTH in %: 90%
SETVI [7]
  Post-emergence action against SETVI in %: 100%
AMARE [8]
  Pre-emergence action against AMARE in %: 100%
LOLRI [9]
  Pre-emergence herbicidal action against LOLRI in %: 100%
DIGSA [10]
  Post-emergence action against DIGSA in %: 100%
AVEFA [11]
  Pre-emergence action against AVEFA in %: 100%
POLCO
  Pre-emergence action against POLCO in %: 100%
LOLRI [12]
  Post-emergence action against LOLRI in %: 100%
AVEFA [13]
  Post-emergence action against AVEFA in %: 90%
MATIN
  Pre-emergence action against MATIN in %: 80%
ECHCG [14]
  Pre-emergence action against ECHCG in %: 100%
VIOTR [15]
  Pre-emergence action against VIOTR in %: 100%
ALOMY [16]
  Post-emergence action against ALOMY in %: 100%

## C=CCOCC1CCC2(C1)NC(=O)C(c1c(C)cc(C#CC)cc1Cl)=C2OC(=O)OCC (stereo not drawn) [Example P-71]
SETVI [1]
  Pre-emergence action against SETVI in %: 100%
ECHCG [2]
  Post-emergence action against ECHCG in %: 100%
VERPE
  Pre-emergence action against VERPE in %: 90%
DIGSA [3]
  Pre-emergence action against DIGSA in %: 100%
VIOTR [4]
  Post-emergence action against VIOTR in %: 100%
ALOMY [5]
  Pre-emergence action against ALOMY in %: 100%
SETVI [7]
  Post-emergence action against SETVI in %: 100%
LOLRI [9]
  Pre-emergence herbicidal action against LOLRI in %: 100%
DIGSA [10]
  Post-emergence action against DIGSA in %: 90%
AVEFA [11]
  Pre-emergence action against AVEFA in %: 90%
POLCO
  Pre-emergence action against POLCO in %: 90%
LOLRI [12]
  Post-emergence action against LOLRI in %: 80%
AVEFA [13]
  Post-emergence action against AVEFA in %: 80%
ECHCG [14]
  Pre-emergence action against ECHCG in %: 100%
VIOTR [15]
  Pre-emergence action against VIOTR in %: 100%
ALOMY [16]
  Post-emergence action against ALOMY in %: 80%

## CC#Cc1cc(F)c(C2=C(O)C3(CCC(COC)C3)NC2=O)c(OC)c1 (stereo not drawn) [Example I-40]
SETVI [1]
  Pre-emergence action against SETVI in %: 100%
ECHCG [2]
  Post-emergence action against ECHCG in %: 100%
DIGSA [3]
  Pre-emergence action against DIGSA in %: 100%
ALOMY [5]
  Pre-emergence action against ALOMY in %: 100%
AMARE [17]
  Post-emergence action against AMARE in %: 80%
SETVI [7]
  Post-emergence action against SETVI in %: 100%
LOLRI [9]
  Pre-emergence herbicidal action against LOLRI in %: 90%
DIGSA [10]
  Post-emergence action against DIGSA in %: 100%
AVEFA [11]
  Pre-emergence action against AVEFA in %: 100%
LOLRI [12]
  Post-emergence action against LOLRI in %: 90%
AVEFA [13]
  Post-emergence action against AVEFA in %: 90%
ECHCG [14]
  Pre-emergence action against ECHCG in %: 100%
ALOMY [16]
  Post-emergence action against ALOMY in %: 100%

## CC#Cc1cc(C)c(C2=C(OC(=O)OCC)C3(CCC(COCC)C3)NC2=O)c(Br)c1 (stereo not drawn) [Example P-34]
SETVI [1]
  Pre-emergence action against SETVI in %: 100%
ECHCG [2]
  Post-emergence action against ECHCG in %: 100%
VERPE
  Pre-emergence action against VERPE in %: 80%
DIGSA [3]
  Pre-emergence action against DIGSA in %: 100%
VIOTR [4]
  Post-emergence action against VIOTR in %: 80%
ALOMY [5]
  Pre-emergence action against ALOMY in %: 100%
ABUTH [18]
  Pre-emergence action against ABUTH in %: 90%
SETVI [7]
  Post-emergence action against SETVI in %: 100%
LOLRI [9]
  Pre-emergence herbicidal action against LOLRI in %: 100%
DIGSA [10]
  Post-emergence action against DIGSA in %: 100%
AVEFA [11]
  Pre-emergence action against AVEFA in %: 100%
LOLRI [12]
  Post-emergence action against LOLRI in %: 90%
AVEFA [13]
  Post-emergence action against AVEFA in %: 90%
ECHCG [14]
  Pre-emergence action against ECHCG in %: 100%
VIOTR [15]
  Pre-emergence action against VIOTR in %: 100%
ALOMY [16]
  Post-emergence action against ALOMY in %: 100%
